Measured values from patent US20190062305A1, “PYRIDYL OR PYRAZINYL COMPOUNDS CARRYING A METHYL-BOUND ALPHA-AMINO ACID AMIDE GROUP” (ABBVIE DEUTSCHLAND GMBH & CO. KG, priority 2015, published 2019).
Where a name gives a salt, the structure may show the parent alone. Read-outs that look alike come from different tables or passages of the source.

Legend:
5-HT2C receptor = molecular target: T1, 5-HT2C receptor (Homo sapiens, UniProt P28335); test: Human 5-HT2C functional assay (beta-arrestin2 recruitment, U2OS_HTR2C_β-Arrestin cells); type: cell-based; conditions: for EC50: beta-arrestin2 recruitment, U2OS_HTR2C_β-Arrestin cells, 1.5 h incubation, read-out: EC50 5-HT2C (potency in functional assay); for Emax: relative efficacy vs response to 10 μM 5-HT or maximal 5-HT effect (100%)
T1 construct: host or cells: U2OS
Summary of the method: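 EC50 and relative efficacy came from 4-parameter variable-slope fits, normalised to 10 µM 5-HT or maximal 5-HT response (100%). Luminescent β-galactosidase enzyme-complementation signal was read after 1.5 h compound exposure in U2OS_HTR2C_β-Arrestin cells held in 1% serum medium from the prior day.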

[1] = Metabolic stability in human liver microsomes, unbound intrinsic clearance (Cl int/fu mic); type: in vitro ADME; conditions: pH 7.4, human liver microsomes 0.25 mg/mL, 0.5 μM compound, NADPH, read-out: Cl int, mic unb. (h) [l/h/kg] (unbound intrinsic clearance, human)
Summary of the method: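 Unbound intrinsic clearance is CLint divided by fu mic, with the unbound fraction measured by 4 h HTDialysis at 37 °C of 0.25 mg/ml microsomes spiked with 0.5 µM compound. For CLint, 0.5 µM compound was incubated with 0.25 mg/mL human microsomes and 1.0 mM NADPH (pH 7.4, 37 °C). Substrate loss over 30 min was measured by LC-MS/MS and t1/2 assumed first-order kinetics.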

T1 sequence (P28335 33-458): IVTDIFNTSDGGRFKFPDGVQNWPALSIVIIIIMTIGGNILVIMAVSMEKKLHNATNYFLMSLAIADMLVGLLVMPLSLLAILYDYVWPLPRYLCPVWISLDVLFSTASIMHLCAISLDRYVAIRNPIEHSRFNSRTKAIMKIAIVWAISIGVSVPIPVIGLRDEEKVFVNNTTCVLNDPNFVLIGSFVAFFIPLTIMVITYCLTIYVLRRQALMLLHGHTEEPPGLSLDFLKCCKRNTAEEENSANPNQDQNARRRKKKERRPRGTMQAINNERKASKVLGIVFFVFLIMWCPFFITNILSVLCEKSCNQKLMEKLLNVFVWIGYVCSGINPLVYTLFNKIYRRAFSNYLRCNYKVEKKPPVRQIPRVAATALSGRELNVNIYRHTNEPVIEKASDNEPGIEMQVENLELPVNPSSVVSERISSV
T1 sequence (P32121 whole entry partner): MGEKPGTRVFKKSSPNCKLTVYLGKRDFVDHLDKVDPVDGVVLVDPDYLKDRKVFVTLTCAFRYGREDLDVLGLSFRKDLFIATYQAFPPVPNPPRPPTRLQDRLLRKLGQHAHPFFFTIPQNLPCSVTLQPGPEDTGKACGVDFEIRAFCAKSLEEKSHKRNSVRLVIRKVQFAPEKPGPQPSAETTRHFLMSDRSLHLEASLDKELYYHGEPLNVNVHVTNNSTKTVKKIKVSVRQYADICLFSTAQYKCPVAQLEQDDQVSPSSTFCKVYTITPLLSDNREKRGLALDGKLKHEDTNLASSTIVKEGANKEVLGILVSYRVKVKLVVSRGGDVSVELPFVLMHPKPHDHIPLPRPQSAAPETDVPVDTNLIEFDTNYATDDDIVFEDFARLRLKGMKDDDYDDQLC

Compound: COc1nc(OCC2(C(F)(F)F)CC2)c(F)cc1CNC(=O)[C@@H]1CCCN1 [Example 48, (2S)—N-[[5-Fluoro-2-methoxy-6-[[1-(trifluoromethyl)cyclopropyl]methoxy]-3-pyridyl]methyl]pyrrolidine-2-carboxamide; Succinic Acid]
- EC50 (5-HT2C receptor): < 20 nM
- Emax (5-HT2C receptor): > 70%
- CLint scaled at 0.5 μM ([1]; human, liver microsomes): < 5 L/h/kg

Compound: COc1nc(OCC2CC(F)(F)C2)c(F)cc1CN(C)C(=O)[C@@H]1CCCN1 [Example 115, (2S)—N-[[6-[(3,3-Difluorocyclobutyl)methoxy]-5-fluoro-2-methoxy-3-pyridyl]-methyl]-N-methyl-pyrrolidine-2-carboxamide Hydrochloride]
- EC50 (5-HT2C receptor): < 20 nM
- Emax (5-HT2C receptor): 50 to 70%
- CLint scaled at 0.5 μM ([1]; human, liver microsomes): < 5 L/h/kg

Compound: COc1nc(OC2CC(F)(F)C2)c(F)cc1CN(C)C(=O)[C@@H]1CCCN1 [Example 78, (2S)—N-[[6-(3,3-Difluorocyclobutoxy)-5-fluoro-2-methoxy-3-pyridyl]methyl]-N-methyl-pyrrolidine-2-carboxamide Hydrochloride]
- EC50 (5-HT2C receptor): < 20 nM
- Emax (5-HT2C receptor): > 70%
- CLint scaled at 0.5 μM ([1]; human, liver microsomes): < 5 L/h/kg

Compound: COc1nc(NCC2CC(F)(F)C2)c(F)cc1CNC(=O)[C@@H]1CCCN1 [Example 136, (2S)—N-[[6-[(3,3-Difluorocyclobutyl)methylamino]-5-fluoro-2-methoxy-3-pyridyl]methyl]pyrrolidine-2-carboxamide; 2,2,2-trifluoroacetic Acid]
- EC50 (5-HT2C receptor): < 20 nM
- Emax (5-HT2C receptor): > 70%
- CLint scaled at 0.5 μM ([1]; human, liver microsomes): < 5 L/h/kg

Compound: COc1nc(OCc2ccccc2)c(F)cc1CNC(=O)[C@@H]1CCCN1 [Example 2, (2S)—N-[(6-Benzyloxy-5-fluoro-2-methoxy-3-pyridyl)methyl]pyrrolidine-2-carboxamide; 2,2,2-trifluoroacetic Acid]
- EC50 (5-HT2C receptor): < 20 nM
- Emax (5-HT2C receptor): > 70%
- CLint scaled at 0.5 μM ([1]; human, liver microsomes): < 5 L/h/kg

Compound: COc1nc(OC[C@@H]2CCC(F)(F)C2)c(F)cc1CNC(=O)[C@H]1CCCN1C [Example 25, (2R)—N-[[6-[[(1R)-3,3-Difluorocyclopentyl]methoxy]-5-fluoro-2-methoxy-3-pyridyl]methyl]-1-methyl-pyrrolidine-2-carboxamide; Fumaric Acid]
- EC50 (5-HT2C receptor): 20 to 200 nM
- Emax (5-HT2C receptor): 50 to 70%
- CLint scaled at 0.5 μM ([1]; human, liver microsomes): < 5 L/h/kg

Compound: COc1nc(OCC(F)(F)C(F)(F)C(F)(F)F)c(F)cc1CNC(=O)[C@@H]1CCCN1 [Example 110, (2S)—N-[[5-Fluoro-6-(2,2,3,3,4,4,4-heptafluorobutoxy)-2-methoxy-3-pyridyl]-methyl]pyrrolidine-2-carboxamide Hydrochloride]
- EC50 (5-HT2C receptor): < 20 nM
- Emax (5-HT2C receptor): > 70%
- CLint scaled at 0.5 μM [1]: 5 to 50 L/h/kg

Compound: COc1nc(OCC2(C(F)F)CC2)c(F)cc1CNC(=O)[C@@H]1CCCN1 [Example 97, (2S)—N-[[6-[[1-(Difluoromethyl)cyclopropyl]methoxy]-5-fluoro-2-methoxy-3-pyridyl]methyl]pyrrolidine-2-carboxamide; (2S,3S)-2,3-dihydroxybutanedioic Acid]
- EC50 (5-HT2C receptor): < 20 nM
- Emax (5-HT2C receptor): > 70%
- CLint scaled at 0.5 μM ([1]; human, liver microsomes): < 5 L/h/kg

Compound: COc1nc(OC2CCC(F)(F)CC2)c(F)cc1CNC(=O)[C@@H]1CCN1 [Example 37, (2S)—N-[[6-(4,4-Difluorocyclohexoxy)-5-fluoro-2-methoxy-3-pyridyl]methyl]-azetidine-2-carboxamide; Succinic Acid]
- EC50 (5-HT2C receptor): < 20 nM
- Emax (5-HT2C receptor): 50 to 70%
- CLint scaled at 0.5 μM ([1]; human, liver microsomes): < 5 L/h/kg

Compound: COc1nc(Cc2ccccc2)c(F)cc1CNC(=O)[C@@H]1CCCN1 [Example 145, (2S)—N-[(6-Benzyl-5-fluoro-2-methoxy-3-pyridyl)methyl]pyrrolidine-2-carboxamide]
- EC50 (5-HT2C receptor): < 20 nM
- Emax (5-HT2C receptor): > 70%
- CLint scaled at 0.5 μM ([1]; human, liver microsomes): < 5 L/h/kg

Compound: COc1nc(NCC2CCC(F)(F)CC2)c(F)cc1CNC(=O)[C@@H]1CCCN1 [Example 169, (2S)—N-[[6-[(4,4-Difluorocyclohexyl)methylamino]-5-fluoro-2-methoxy-3-pyridyl]methyl]pyrrolidine-2-carboxamide; 2,2,2-trifluoroacetic Acid]
- EC50 (5-HT2C receptor): < 20 nM
- Emax (5-HT2C receptor): > 70%
- CLint scaled at 0.5 μM ([1]; human, liver microsomes): < 5 L/h/kg

Compound: COc1nc(OC2CCC(C(F)(F)F)CC2)c(F)cc1CNC(=O)[C@@H]1CCN1C (stereo partly drawn) [Example 38, (2S)—N-[[5-Fluoro-2-methoxy-6-[4-(trifluoromethyl)cyclohexoxy]-3-pyridyl]methyl]-1-methyl-azetidine-2-carboxamide; Succinic Acid]
- EC50 (5-HT2C receptor): 20 to 200 nM
- Emax (5-HT2C receptor): 50 to 70%
- CLint scaled at 0.5 μM ([1]; human, liver microsomes): 5 to 50 L/h/kg

Compound: COc1nc(OCC2CC(F)(F)C2(F)F)c(F)cc1CNC(=O)[C@@H]1CCCN1 (stereo partly drawn) [Example 47, (2S)—N-[[5-Fluoro-2-methoxy-6-[(2,2,3,3-tetrafluorocyclobutyl)methoxy]-3-pyridyl]methyl]pyrrolidine-2-carboxamide; Succinic Acid]
- EC50 (5-HT2C receptor): < 20 nM
- Emax (5-HT2C receptor): > 70%
- CLint scaled at 0.5 μM ([1]; human, liver microsomes): < 5 L/h/kg

Compound: COc1nc(OC[C@@H]2CCC(F)(F)C2)c(F)cc1CNC(=O)[C@@H]1CCCN1 [Example 33, (2S)—N-[[6-[[(1R)-3,3-Difluorocyclopentyl]methoxy]-5-fluoro-2-methoxy-3-pyridyl]methyl]pyrrolidine-2-carboxamide; Fumaric Acid]
- EC50 (5-HT2C receptor): < 20 nM
- Emax (5-HT2C receptor): > 70%
- CLint scaled at 0.5 μM ([1]; human, liver microsomes): < 5 L/h/kg

Compound: COc1nc(N2CCC(C(F)(F)F)CC2)c(F)cc1CNC(=O)[C@@H]1CCCN1 [Example 133, (2S)—N-[[5-Fluoro-2-methoxy-6-[4-(trifluoromethyl)-1-piperidyl]-3-pyridyl]methyl]pyrrolidine-2-carboxamide; 2,2,2-trifluoroacetic Acid]
- EC50 (5-HT2C receptor): < 20 nM
- Emax (5-HT2C receptor): > 70%
- CLint scaled at 0.5 μM ([1]; human, liver microsomes): 5 to 50 L/h/kg

Compound: COc1nc(OC2CC(F)(F)C2)c(F)cc1CNC(=O)[C@@H]1C[C@@H](F)CN1 [Example 94, (2S,4R)—N-[[6-(3,3-Difluorocyclobutoxy)-5-fluoro-2-methoxy-3-pyridyl]methyl]-4-fluoro-pyrrolidine-2-carboxamide Hydrochloride]
- EC50 (5-HT2C receptor): < 20 nM
- Emax (5-HT2C receptor): > 70%
- CLint scaled at 0.5 μM ([1]; human, liver microsomes): < 5 L/h/kg

Compound: COc1nc(OC2CCC(C(F)(F)F)CC2)c(F)cc1CNC(=O)[C@H]1NC[C@H]1C (stereo partly drawn) [Example 79, (2S,3R)—N-[[5-Fluoro-2-methoxy-6-[4-(trifluoromethyl)cyclohexoxy]-3-pyridyl]-methyl]-3-methyl-azetidine-2-carboxamide; Fumaric Acid]
- EC50 (5-HT2C receptor): 20 to 200 nM
- Emax (5-HT2C receptor): 30 to 50%
- CLint scaled at 0.5 μM ([1]; human, liver microsomes): 50 to 500 L/h/kg

Compound: COc1nc(N2CCC(C3CCC(C(F)(F)F)CC3)CC2)c(F)cc1CNC(=O)[C@@H]1CCCN1 (stereo partly drawn) [Example 180, (2S)—N-[[5-Fluoro-2-methoxy-6-[4-[4-(trifluoromethyl)cyclohexyl]-1-piperidyl]-3-pyridyl]methyl]pyrrolidine-2-carboxamide; 2,2,2-trifluoroacetic Acid]
- EC50 (5-HT2C receptor): 200 to 1000 nM
- Emax (5-HT2C receptor): > 70%
- CLint scaled at 0.5 μM ([1]; human, liver microsomes): 50 to 500 L/h/kg

Compound: COc1nc(N2CC(C)(Oc3ccccc3)C2)c(F)cc1CNC(=O)[C@@H]1CCCN1 [Example 176, (2S)—N-[[5-Fluoro-2-methoxy-6-(3-methyl-3-phenoxy-azetidin-1-yl)-3-pyridyl]methyl]pyrrolidine-2-carboxamide; 2,2,2-trifluoroacetic Acid]
- EC50 (5-HT2C receptor): < 20 nM
- Emax (5-HT2C receptor): > 70%
- CLint scaled at 0.5 μM ([1]; human, liver microsomes): 5 to 50 L/h/kg
